{
  "source": "patent US20150175655A1",
  "about": "(priority 2012, published 2015)",
  "data": [
    {"target": "T1, NS3 genotype 3a protease (UniProt Q81258)", "T1 construct": "Purified NS3 protease domain (amino acids 1-181) of the genotype 1b and 3a virus were generated as above; fused on or other part: N-terminal hexahistidine tag and rTEV protease cleavage site (vector p28-N6H-Tev-NS3(181)3)", "T1 sequence (Q81258 1033-1663)": "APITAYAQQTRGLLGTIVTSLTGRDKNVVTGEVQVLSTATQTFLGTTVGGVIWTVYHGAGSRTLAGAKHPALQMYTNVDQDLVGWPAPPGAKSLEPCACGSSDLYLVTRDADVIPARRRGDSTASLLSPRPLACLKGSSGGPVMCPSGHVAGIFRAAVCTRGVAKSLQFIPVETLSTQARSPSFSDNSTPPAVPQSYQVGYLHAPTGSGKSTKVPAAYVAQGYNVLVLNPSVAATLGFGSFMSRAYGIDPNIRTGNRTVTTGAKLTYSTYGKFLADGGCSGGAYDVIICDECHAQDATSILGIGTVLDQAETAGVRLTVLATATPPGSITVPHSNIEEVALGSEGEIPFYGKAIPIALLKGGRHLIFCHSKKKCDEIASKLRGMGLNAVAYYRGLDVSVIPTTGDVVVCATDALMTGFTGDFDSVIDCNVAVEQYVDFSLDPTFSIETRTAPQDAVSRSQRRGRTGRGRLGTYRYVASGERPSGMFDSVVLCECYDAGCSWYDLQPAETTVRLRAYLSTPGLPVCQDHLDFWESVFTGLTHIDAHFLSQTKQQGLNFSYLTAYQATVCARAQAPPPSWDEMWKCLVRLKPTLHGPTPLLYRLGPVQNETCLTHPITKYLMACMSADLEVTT", "assay": "Ki determination, NS3 protease genotype 3a (fluorogenic depsipeptide substrate)", "assay_type": "biochemical, hepatitis C virus", "conditions": "200 pM enzyme, 20 μM NS4A peptide, 2 μM substrate, read-out: Ki 3A", "excerpt": "(§1) The coding sequences for the genotype 3 HCV protease domain was amplified by RT-PCR using a Titan One Tube RT-PCR Kit (Roche, Indianapolis, Ind.) and RNA extracted from HCV-positive human serum (BBI Diagnostics, MA) using a QIAmp UltraSens Virus Kit (Qiagen, Valencia, Calif.). 5′ PCR primers were designed to encode N-terminal hexahistidine tags and to insert in-frame rTEV protease cleavage sites into the NS3 protease coding sequences. The resulting DNA fragments were cloned into pET28 yielding the expression vectors p28-N6H-Tev-NS3(181)1a and p28-N6H-Tev-NS3(181)3, respectively.\n(§2) BL21AI bacteria (Invitrogen, Carlsbad, Calif.) were transformed with genotype 1b or 3 NS3 expression vectors and used to inoculate a 20 L fermentation vessel (Sartorius BBI System Inc., Bethlehem, Pa.), containing 18 L of fresh 2YT medium supplemented with 50 μg/mL kanamycin. When cell densities reached an OD600 of 1, the temperature of the cultures was reduced from 37° C. to 28° C. and induction was immediately initiated by the addition of 30 μM ZnSO4, 14 mM L-arabinose and 1 mM Isopropyl β-D-thiogalactoside (IPTG) final concentrations. Cells were harvested by centrifugation four hours post-induction and were stored as frozen pellets at −80° C. prior to NS3 protein purification.\n(§3) Bacterial pellets collected from the expression of genotype 3 HCV NS3 protease were homogenized in Lysis Buffer (25 mM tris, pH 7.5 buffer containing 150 mM NaCl and 1 mM phenylmethanesulfonyl fluoride (PMSF)) and passed through a microfluidizer at 18,000 pounds/in^2. Homogenized cell lysates were centrifuged at 30,000×g for 30 minutes at 4° C. The resulting P1 pellets were washed with Wash Buffer I (25 mM tris, pH 7.5 containing 1% CHAPS) followed by centrifugation at 10,000×g for 30 minutes at 4° C. […] The resulting P3 pellets were resuspended in Solubilization Buffer (20 ml of 25 mM tris, pH 7.5 containing 150 mM NaCl and 8 M urea) and incubated at 4° C. for one hour. Solubilized proteins were passed through a 0.45 micron filter. Protein concentrations were measured and the solutions were adjusted to 40 mM DTT, incubated for 30 minutes at 4° C. and then quickly diluted into Refolding Buffer (25 mM tris, pH 8.5, 0.8 M Guanidine-HCl, 0.4 M L-Arginine, 10 mM ZnSO4) while stirring. Protein solutions were incubated at 4° C. overnight to allow refolding. Refolded proteases were centrifuged at 30,000×g for 10 minutes to remove residual precipitates. Final protein concentrations were then measured and the NS3 proteases were aliquoted, snap frozen in liquid nitrogen and stored at −80° C.\n(§4) Purified NS3 protease domain (amino acids 1-181) of the genotype 1b and 3a virus were generated as above. The internally quenched fluorogenic depsipeptide substrate Ac-DED(Edans)-EEAbuψ[COO]ASK(Dabcyl)-NH2 and a synthetic peptide containing the hydrophobic core residues of the NS4A protein cofactor ([…]; NS4A peptide) were obtained from Anaspec, Inc. (San Jose, Calif.). Other chemicals and biochemicals were of reagent grade or better and were purchased from standard suppliers.\n(§5) Reactions were run at room temperature in buffer consisting of 50 mM HEPES, 40% glycerol, 0.05% Triton X-100, 10 mM DTT, and 10% DMSO. The final assay solutions contained 50 pM NS3 genotype 1b protease or 200 pM genotype 3a protease, 20 μM NS4A peptide, and 4 μM substrate (genotype 1 b) or 2 μM substrate (genotype 3a). Inhibitor concentrations varied from 100 nM to 5 pM in 3-fold dilutions, and no-inhibitor controls were included.\n(§6) Compound dilutions were made in DMSO at 20× final concentration. Reaction mixtures were prepared in 96-well assay plates. A solution of enzyme and NS4A peptide in assay buffer (25 μL volume with both reagents at 4× final concentration) was mixed with 45 μL assay buffer and 5 μL of either inhibitor or DMSO, and pre-incubated at room temperature for 1 hour. The reaction was started by addition of 25 μL substrate solution at 4× final concentration. […]", "units": {"Ki": "nM"}, "values": [
      {"smiles": "COc1ccc2nc3c(nc2c1)O[C@H]1CN(C(=O)[C@H](C(C)(C)C)NC(=O)O[C@H]2CC4CC(C4)[C@@H]2CCCCC3)[C@H](C(=O)N[C@]2(C(=O)NS(=O)(=O)C3CC3)C[C@H]2C(F)F)[C@@H]1C", "note": "[Example 72, (4aS,8S,11S,12S,13R,25aS)-8-tert-butyl-N-[(1R,2R)-1-[(cyclopropylsulfonyl)carbamoyl]-2-(difluoromethyl)cyclopropyl]-17-methoxy-12-methyl-6,9-dioxo-2,3,4,4a,6,7,8,9,12,13,21,22,23,24,25,25a-hexadecahydro-1H,11H-1,3:10,13-dimethanoquinoxalino[2,3-k][1,10,3,6]benzodioxadiazacyclononadecine-11-carboxamide]", "Ki": 4.1},
      {"smiles": "CC[C@@H]1[C@@H]2CN(C(=O)[C@H](C(C)(C)C)NC(=O)O[C@@H]3CCC[C@H]3CCCCCc3nc4ccc(OC)cc4nc3O2)[C@@H]1C(=O)N[C@]1(C(=O)NS(=O)(=O)C2(C)CC2)C[C@H]1C(F)F", "note": "[Example 6, (3aR,7S,10S,11S,12R,24aR)-7-tert-butyl-N-[(1R,2R)-2-(difluoromethyl)-1-{[(1-methylcyclopropyl)sulfonyl]carbamoyl}cyclopropyl]-11-ethyl-16-methoxy-5,8-dioxo-1,2,3,3a,5,6,7,8,11,12,20,21,22,23,24,24a-hexadecahydro-10H-9,12-methanocyclopenta[18,19][1,10,3,6]dioxadiazacyclononadecino[11,12-b]quinoxaline-10-carboxamide]", "Ki": 0.62},
      {"smiles": "COc1ccc2nc3c(nc2c1)O[C@H]1CN(C(=O)[C@H](C(C)(C)C)NC(=O)O[C@@H]2C[C@H]2CCCCC3)[C@H](C(=O)N[C@]2(C(=O)NS(=O)(=O)C3(C)CC3)C[C@H]2C(F)F)[C@@H]1CC#N", "note": "[Example 50, (1aR,5S,8S,9S,10R,22aR)-5-tert-butyl-9-(cyanomethyl)-N-[(1R,2R)-2-(difluoromethyl)-1-{[(1-methylcyclopropyl)sulfonyl]carbamoyl}cyclopropyl]-14-methoxy-3,6-dioxo-1,1a,3,4,5,6,9,10,18,19,20,21,22,22a-tetradecahydro-8H-7,10-methanocyclopropa[18,19][1,10,3,6]dioxadiazacyclononadecino[11,12-b]quinoxaline-8-carboxamide]", "Ki": "> 100"},
      {"smiles": "CC[C@@H]1[C@@H]2CN(C(=O)[C@H](C(C)(C)C)NC(=O)O[C@@H]3C[C@H]3CCCCC(F)(F)c3nc4ccc(OC(F)F)cc4nc3O2)[C@@H]1C(=O)N[C@]1(C(=O)NS(=O)(=O)C2(C)CC2)C[C@H]1C(F)F", "note": "[Example 85, (1aR,5S,8S,9S,10R,22aR)-5-tert-butyl-14-(difluoromethoxy)-N-[(1R,2R)-2-(difluoromethyl)-1-{[(1-methylcyclopropyl)sulfonyl]carbamoyl}cyclopropyl]-9-ethyl-18,18-difluoro-3,6-dioxo-1,1a,3,4,5,6,9,10,18,19,20,21,22,22a-tetradecahydro-8H-7,10-methanocyclopropa[18,19][1,10,3,6]dioxadiazacyclononadecino[11,12-b]quinoxaline-8-carboxamide]", "Ki": 0.03}
    ]},
    {"target": "T1, NS3 genotype 3a protease", "assay": "Ki determination, NS3 protease genotype 3a (fluorogenic depsipeptide substrate)", "assay_type": "biochemical, hepatitis C virus", "conditions": "read-out: Ki 3A, 200 pM enzyme, 20 μM NS4A peptide, 2 μM substrate", "excerpt": "as §1, §2, §3, §4, §5, §6", "units": {"Ki": "nM"}, "values": [
      {"smiles": "CCC[C@@H]1[C@@H]2CN(C(=O)[C@H](C(C)(C)C)NC(=O)O[C@@H]3C[C@H]3CCCCC(F)(F)c3nc4ccc(OC)cc4nc3O2)[C@@H]1C(=O)N[C@]1(C(=O)NS(=O)(=O)C2(C)CC2)C[C@H]1C(F)F", "note": "[Example 65, (1aR,5S,8S,9S,10R,22aR)-5-tert-butyl-N-[(1R,2R)-2-(difluoromethyl)-1-{[(1-methylcyclopropyl)sulfonyl]carbamoyl}cyclopropyl]-18,18-difluoro-14-methoxy-3,6-dioxo-9-propyl-1,1a,3,4,5,6,9,10,18,19,20,21,22,22a-tetradecahydro-8H-7,10-methanocyclopropa[18,19][1,10,3,6]dioxadiazacyclononadecino[11,12-b]quinoxaline-8-carboxamide]", "Ki": 0.07},
      {"smiles": "COc1ccc2nc3c(nc2c1)O[C@H]1CN(C(=O)[C@H](C(C)(C)C)NC(=O)O[C@@H]2C[C@H]2CCCCC3)[C@H](C(=O)N[C@]2(C(=O)NS(=O)(=O)C3CC3)C[C@H]2CCF)[C@@H]1C", "note": "[Example 22, (1aR,5S,8S,9S,10R,22aR)-5-tert-butyl-N-[(R1R,2S)-1-[(cyclopropylsulfonyl)carbamoyl]-2-(2-fluoroethyl)cyclopropyl]-14-methoxy-9-methyl-3,6-dioxo-1,1a,3,4,5,6,9,10,18,19,20,21,22,22a-tetradecahydro-8H-7,10-methanocyclopropa[18,19][1,10,3,6]dioxadiazacyclononadecino[11,12-b]quinoxaline-8-carboxamide]", "Ki": 1.3},
      {"smiles": "COc1ccc2nc3c(nc2c1)O[C@H]1CN(C(=O)[C@H](C(C)(C)C)NC(=O)O[C@@H]2C[C@H]2CCCCC3)[C@H](C(=O)N[C@]2(C(=O)NS(=O)(=O)C3CC3)C[C@H]2C(F)F)[C@@H]1C", "note": "[Example 19, (1aR,5S,8S,9S,10R,22aR)-5-tert-butyl-N-[(1R,2R)-1-[(cyclopropylsulfonyl)carbamoyl]-2-(difluoromethyl)cyclopropyl]-14-methoxy-9-methyl-3,6-dioxo-1,1a,3,4,5,6,9,10,18,19,20,21,22,22a-tetradecahydro-8H-7,10-methanocyclopropa[18,19][1,10,3,6]dioxadiazacyclononadecino[11,12-b]quinoxaline-8-carboxamide]", "Ki": 0.13},
      {"smiles": "COc1ccc2nc3c(nc2c1)O[C@H]1CN(C(=O)[C@H](C(C)(C)C)NC(=O)O[C@@H]2C[C@H]2CCCCC3)[C@H](C(=O)N[C@]2(C(=O)NS(=O)(=O)C3(C)CC3)C[C@H]2CCF)[C@@H]1C", "note": "[Example 23, (1aR,5S,8S,9S,10R,22aR)-5-tert-butyl-N-[(1R,2S)-2-(2-fluoroethyl)-1-{[(1-methylcyclopropyl)sulfonyl]carbamoyl}cyclopropyl]-14-methoxy-9-methyl-3,6-dioxo-1,1a,3,4,5,6,9,10,18,19,20,21,22,22a-tetradecahydro-8H-7,10-methanocyclopropa[18,19][1,10,3,6]dioxadiazacyclononadecino[11,12-b]quinoxaline-8-carboxamide]", "Ki": 1.1}
    ]}
  ]
}
